Each compound was assayed against T1, recombinant human tissue transglutaminase (rhTG2) (Homo sapiens, UniProt P21980) (assay: Inhibition of rec. human tissue transglutaminase (fluorescence, Abz-APE(CAD-DNP)QEA-OH)). Details: Table 2, TG2 inhibitors.
T1 construct: purchased Zedira 1022 (so in the source); T022)
T1 sequence (P21980 1-687): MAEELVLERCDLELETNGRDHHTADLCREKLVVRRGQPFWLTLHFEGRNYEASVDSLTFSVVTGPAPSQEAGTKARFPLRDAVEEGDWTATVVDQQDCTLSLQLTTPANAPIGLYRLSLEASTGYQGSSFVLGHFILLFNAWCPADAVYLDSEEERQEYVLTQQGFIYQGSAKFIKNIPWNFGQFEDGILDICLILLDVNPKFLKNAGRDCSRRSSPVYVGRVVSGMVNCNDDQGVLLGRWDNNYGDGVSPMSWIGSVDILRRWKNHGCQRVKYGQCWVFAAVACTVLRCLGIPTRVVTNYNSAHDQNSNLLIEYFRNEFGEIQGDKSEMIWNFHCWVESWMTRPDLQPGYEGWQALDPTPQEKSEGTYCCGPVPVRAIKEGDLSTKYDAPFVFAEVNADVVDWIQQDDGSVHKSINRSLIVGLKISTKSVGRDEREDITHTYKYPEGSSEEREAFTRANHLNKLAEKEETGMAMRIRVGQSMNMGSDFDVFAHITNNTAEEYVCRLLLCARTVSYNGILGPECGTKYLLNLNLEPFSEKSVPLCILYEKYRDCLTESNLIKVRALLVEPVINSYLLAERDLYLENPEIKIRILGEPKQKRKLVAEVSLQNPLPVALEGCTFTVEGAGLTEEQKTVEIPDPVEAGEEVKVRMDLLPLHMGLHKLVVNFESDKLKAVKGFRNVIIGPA
Assay type: biochemical
Procedure: Method for Inhibition Studies of Rec. Human Tissue Transglutaminase (rhTG2)
250 μg lyophilized His-tagged recombinant human tissue transglutaminase (His6-rhTG2, Zedira product 1022) is reconstituted in H2O (volume depends on original volume before lyophilization) resulting in a buffer containing 10 mM Tris-HCl, 150 mM NaCl, 1 mM EDTA, 5 mM DTT, 189 mg/ml maltodextrin, pH=8.1. The rhTG2 stock solution is diluted in buffer (50 mM Tris-HCl, 7.5 mM CaCl2, 150 mM NaCl, pH=7.4) to give a working solution of 100 U/ml (based on the amine-incorporation activity measured using T036, described below).
A 10 mM inhibitor stock solution is prepared in DMSO, and from this stock solution a serial 1:2-fold dilution series is prepared, also in DMSO. Each of these initial dilutions is subsequently diluted 1:50-fold with buffer (50 mM Tris-HCl, 7.5 mM CaCl2, 150 mM NaCl, pH=7.4) to yield the final working dilutions containing 2% (v/v) DMSO. 15 μl of inhibitor working dilution are added per well of a 96 well microtiter plate. As control, 15 μl of a 2% (v/v) DMSO solution prepared using the buffer mentioned above are added per well.
600 μl of His6-rhTG2 working solution are added to 11.4 ml assay buffer (50 mM Iris-HCl, 7.5 mM CaCl2, 150 mM NaCl, 5 mM DTI, 13.4 mM glycine methylester, 50 μM Abz-APE(CAD-DNP)QEA-OH, (Zedira product A102; patent No.: EP 1781807B1), pH=7.4). From this master-mix solution, 285 μl are added per well containing the inhibitor. Increase in fluorescence is measured using λex=313 nm and λem=418 nm at 37° C. for 20 min. A slope of the increase in fluorescence between 10 and 20 min is calculated for determination of the IC50 value (inhibitor concentration at which 50% of the initial TG2 activity is blocked).
Analysis of enzymatic activity is performed by calculation of the slope of an increase in fluorescence intensity. IC50 values are calculated by plotting the enzymatic activity (as percentage from control containing 2% DMSO instead of inhibitor) against the inhibitor concentration. IC50 is defined as the inhibitor concentration blocking 50%) of initial enzyme activity.

Row | Compound | IC50 [nM]
1 | CCC(CC)CNC(=O)Cn1cccc(NC(=O)[C@H](CCC(=O)C(N)=O)NC(=O)c2cnccn2)c1=O [Compound E11, (S)—N1-(1-(2-(2-ethylbutylamino)-2-oxoethyl)-2-oxo-1,2-dihydropyridin-3-yl)-5-oxo-2-(pyrazine-2-carboxamido)hexanediamide] | 450
2 | CCC(CC)CNC(=O)Cn1cccc(NC(=O)[C@H](CCC(=O)C(N)=O)NC(=O)c2ccccc2)c1=O [Compound E12, (S)-2-benzamido-N1-(1-(2-(2-ethylbutylamino)-2-oxoethyl)-2-oxo-1,2-dihydropyridin-3-yl)-5-oxonexanediamide] | 950
3 | CCC(CC)CNC(=O)Cn1cccc(NC(=O)[C@H](CCC(=O)C(N)=O)NC(=O)c2cc([N+](=O)[O-])ccc2C)c1=O [Compound E13] | 700
4 | CCC(CC)CNC(=O)Cn1cccc(NC(=O)[C@H](CCC(=O)C(N)=O)NC(=O)c2scnc2C)c1=O [Compound E14, (S)—N1-(1-(2-(2-ethylbutylamino)-2-oxoethyl)-2-oxo-1,2-dihydropyridin-3-yl)-2-(4-methylthiazole-5-carboxamido)-5-oxohexanediamide] | 250
5 | CCC(CC)CNC(=O)Cn1cccc(NC(=O)[C@H](CCC(=O)C(N)=O)NS(=O)(=O)c2cccc3c(N(C)C)cccc23)c1=O [Compound E15, (S)-2-(5-(dimethylamino)naphthalene-1-sulfonamido)-N1-(1-(2-(2-ethylbutylamino)-2-oxoethyl)-2-oxo-1,2-dihydropyridin-3-yl)-5-oxonexanediamide] | 6000
6 | CCNC(=O)C(=O)CC[C@H](NC(=O)c1cncn1C)C(=O)Nc1cccn(CC(=O)NCC(CC)CC)c1=O [Compound E17, (S)—N1-ethyl-N6-(1-(2-(2-ethylbutylamino)-2-oxoethyl)-2-oxo-1,2-dihydropyridin-3-yl)-5-(1-methyl-1H-imidazole-5-carboxamido)-2-oxonexanediamide] | 100
7 | CCCCCNC(=O)C(=O)CC[C@H](NC(=O)c1cncn1C)C(=O)Nc1cccn(CC(=O)NCC(CC)CC)c1=O [Compound E18, (S)—N1-(1-(2-(2-ethylbutylamino)-2-oxoethyl)-2-oxo-1,2-dihydropyridin-3-yl)-2-(1-methyl-1H-imidazole-5-carboxamido)-5-oxo-N6-pentylnexanediamide] | 125
8 | CCC(CC)CNC(=O)Cn1cccc(NC(=O)[C@H](CCC(=O)C(=O)NC2CC2)NC(=O)c2cncn2C)c1=O [Compound E19, (S)—N1-cyclopropyl-N6-(1-(2-(2-ethylbutylamino)-2-oxoethyl)-2-oxo-1,2-dihydropyridin-3-yl)-5-(1-methyl-1H-imidazole-5-carboxamido)-2-oxonexanediamide] | 350
9 | CCC(CC)CNC(=O)Cn1cccc(NC(=O)[C@H](CCC(=O)C(=O)NCc2ccccc2)NC(=O)c2cncn2C)c1=O [Compound E20, (S)—N1-benzyl-N6-(1-(2-(2-ethylbutylamino)-2-oxoethyl)-2-oxo-1,2-dihydropyridin-3-yl)-5-(1-methyl-1H-imidazole-5-carboxamido)-2-oxonexanediamide] | 600
10 | CCC(CC)CNC(=O)Cn1cccc(NC(=O)[C@H](CCC(=O)C(=O)NC(C)(C)C)NC(=O)c2cncn2C)c1=O [Compound E21, (S)—N1-tert-butyl-N6-(1-(2-(2-ethylbutylamino)-2-oxoethyl)-2-oxo-1,2-dihydropyridin-3-yl)-5-(1-methyl-1H-imidazole-5-carboxamido)-2-oxonexanediamide] | 5000
11 | CCC(CC)CNC(=O)Cn1cccc(NC(=O)[C@H](CCC(=O)C(=O)NC2CC2)NC(=O)c2ccccc2)c1=O [Compound E23, (S)-2-benzamido-N6-cyclopropyl-N1-(1-(2-(2-ethylbutylamino)-2-oxoethyl)-2-oxo-1,2-dihydropyridin-3-yl)-5-oxonexanediamide] | 1100
12 | COC(=O)[C@H](CC(C)C)NC(=O)[C@@H]1CCCN1C(=O)[C@@H](NC(=O)[C@H](CCC(=O)C(=O)NC1CC1)NC(=O)c1ccccc1)C(C)C [Compound E24, (S)-methyl 2-((S)-1-((S)-2-((S)-2-benzamido-6-(cyclopropylamino)-5,6-dioxonexan-amido)-3-methylbutanoyl)pyrrolidine-2-carboxamido)-4-methylpentanoate] | 550
13 | CCC(CC)CNC(=O)Cn1cccc(NC(=O)[C@H](CCC(=O)C(=O)NCC(=O)OC)NC(=O)c2cncn2C)c1=O [Compound E38, (S)-methyl 2-(6-(1-(2-(2-ethylbutylamino)-2-oxoethyl)-2-oxo-1,2-dihydropyridin-3-ylamino)-5-(1-methyl-1H-imidazole-5-carboxamido)-2,6-dioxohexanamido)acetat] | 700
14 | CCC(CC)CNC(=O)Cn1cccc(NC(=O)[C@H](CCC(=O)C(=O)NCOC)NC(=O)c2cncn2C)c1=O [Compound E39, (S)—N1-(1-(2-(2-ethylbutylamino)-2-oxoethyl)-2-oxo-1,2-dihydropyridin-3-yl)-N6-(methoxymethyl)-2-(1-methyl-1H-imidazole-5-carboxamido)-5-oxohexanediamide] | 135
15 | CCC(CC)CNC(=O)Cn1cccc(NC(=O)[C@H](CCC(=O)C(=O)Nc2cncs2)NC(=O)c2cncn2C)c1=O [Compound E40, (S)—N1-(1-(2-(2-ethylbutylamino)-2-oxoethyl)-2-oxo-1,2-dihydropyridin-3-yl)-2-(1-methyl-1H-imidazole-5-carboxamido)-5-oxo-N6-(thiazol-5-yl)hexanediamide] | 500
16 | CCC(CC)CNC(=O)Cn1cccc(NC(=O)[C@H](CCC(=O)C(=O)NCS(=O)(=O)c2ccc(C)cc2)NC(=O)c2cncn2C)c1=O [Compound E41, (S)—N1-(1-(2-(2-ethylbutylamino)-2-oxoethyl)-2-oxo-1,2-dihydropyridin-3-yl)-2-(1-methyl-1H-imidazole-5-carboxamido)-5-oxo-N6-(tosylmethyl)hexanediamide] | 1450
17 | CCC(CC)CNC(=O)Cn1ccc(C)c(NC(=O)[C@H](CCC(=O)C(=O)NC)NC(=O)c2cncn2C)c1=O [Compound E42, (S)—N1-(1-(2-(2-ethylbutylamino)-2-oxoethyl)-4-methyl-2-oxo-1,2-dihydropyridin-3-yl)-N6-methyl-2-(1-methyl-1H-imidazole-5-carboxamido)-5-oxohexanediamide] | 1600
18 | CCC(CC)CNC(=O)Cn1cc(C)cc(NC(=O)[C@H](CCC(=O)C(=O)NC)NC(=O)c2cncn2C)c1=O [Compound E43, (S)—N1-(1-(2-(2-ethylbutylamino)-2-oxoethyl)-5-methyl-2-oxo-1,2-dihydropyridin-yl)-N6-methyl-2-(1-methyl-1H-imidazole-5-carboxamido)-5-oxohexanediamide] | 60
19 | CCC(CC)CNC(=O)Cn1c(C)ccc(NC(=O)[C@H](CCC(=O)C(=O)NC)NC(=O)c2cncn2C)c1=O [Compound E44, (S)—N1-(1-(2-(2-ethylbutylamino)-2-oxoethyl)-6-methyl-2-oxo-1,2-dihydropyridin-3-yl)-N6-methyl-2-(1-methyl-1H-imidazole-5-carboxamido)-5-oxohexanediamide] | 80
20 | CCC(CC)CNC(=O)Cn1cc(Cl)cc(NC(=O)[C@H](CCC(=O)C(=O)NC)NC(=O)c2cncn2C)c1=O [Compound E45, (S)—N1-(5-chloro-1-(2-(2-ethylbutylamino)-2-oxoethyl)-2-oxo-1,2-dihydropyridin-yl)-N6-methyl-2-(1-methyl-1H-imidazole-5-carboxamido)-5-oxohexanediamide] | 75
